Molecules are shown by their SMILES.

Here are results for three compounds from EP4659758A1, “ANTI-AGING COMPOSITION” (Mitsubishi Corporation Life Sciences Limited, priority 2023, dated 2024).

Type in all cases: cell-based
Experiment [1] deals with Normal human fibroblasts. Nature of the experiment: Suppression of decrease in proliferation capability after hydrogen peroxide aging induction (MTT assay). The following applies: 50 µM or 100 µM, 0.5 mM hydrogen peroxide aging induction; relative to untreated non-induced = 100; compared with only aging induction and with 100 µM reduced glutathione, p < 0.005. As to the method: Normal human fibroblasts were seeded in 96 well plates (3.0 × 10^3 cells/well, N = 3) and precultured for 24 hours (5% CO2, 37°C). As a medium, MEM-α, nucleosides medium (Gibco) containing fetal bovine serum (10% of serum-free medium was externally added) was used. Thereafter, the wells were washed once with PBS (-), then replaced with MEM-α, nucleoside medium containing fetal bovine serum (5% of serum-free medium was externally added) dissolved so that the final concentration of Sample 1 or Sample 2 was 50 µM or 100 µM, and further incubated for 30 minutes. Thereafter, fibroblasts were treated with a medium adjusted so that the final concentration of hydrogen peroxide was 0.5 mM to induce aging. Thereafter, an MTT assay was performed according to a conventional method, and the survival rate of fibroblasts was calculated as a relative value when the survival rate of cells in the test section in which neither treatment nor aging induction was performed was taken as 100.
For comparison, a test section in which only aging induction was performed and a test section in which reduced glutathione was 100 µM was set instead of Sample 1. […]

Experiment [2] relates to Normal human epidermal keratinocytes. Described as above. The following applies: 50 µM or 100 µM, 0.5 mM hydrogen peroxide aging induction; relative to untreated non-induced = 100; compared with only aging induction. The protocol: Normal human epidermal keratinocytes were seeded in 96 well plates (1.0 × 10^4 cells/well, N = 3) and precultured for 24 hours (5%CO2, 37°C). As a medium, a commercially available keratinocyte growth medium (PromoCell) was used. Thereafter, the wells were washed once with PBS (-), then replaced with a keratinocyte growth medium dissolved so that the final concentration of Sample 1 was 50 µM or 100 µM, and further incubated for 30 minutes. Thereafter, normal human epidermal keratinocytes were treated with a medium adjusted to have a final concentration of hydrogen peroxide of 0.5 mM to induce aging. Thereafter, an MTT assay was performed according to a conventional method, and the survival rate of normal human epidermal keratinocytes was calculated as a relative value when the survival rate of cells in a test section in which neither the treatment with oxidized glutathione trisulfide nor the aging induction was performed was taken as 100.
For comparison, a test section in which only aging induction was performed without treatment with oxidized glutathione trisulfide was set.
Regarding the survival rate, a significant difference test (t-test, two-tailed) between the two groups of the test section of Sample 1 and the test section in which only aging induction was performed was performed respectively.

The test system of experiment [3] is Normal human fibroblasts. Nature of the experiment: Suppression of decrease in hyaluronic acid production capability due to aging induction (ELISA). The following applies: 50 µM or 100 µM, 0.5 mM hydrogen peroxide, 24 hours; for hyaluronic acid production amount: relative value, compared with only aging induction. The protocol: Normal human fibroblasts were seeded in 24 well plates (8.0 × 10^4 cells/well, N = 3) and precultured for 24 hours (5% CO2, 37°C). As a medium, MEM-α, nucleosides medium (Gibco) containing fetal bovine serum (10% of serum-free medium was externally added) was used. Thereafter, the wells were washed once with PBS (-), then replaced with MEM-α, nucleoside medium containing fetal bovine serum (5% of serum-free medium was externally added) dissolved so that the final concentration of Sample 1 or Sample 2 was 50 µM or 100 µM, and further incubated for 30 minutes. Thereafter, fibroblasts were treated with a medium adjusted so that the final concentration of hydrogen peroxide was 0.5 mM to induce aging. Thereafter, the culture medium was changed to MEM-α, nucleoside medium containing fetal bovine serum (5% of serum-free culture medium was externally added) and incubated for 24 hours, and then the amount of hyaluronic acid was quantified by ELISA using a hyaluronic acid quantification kit (Cosmo Bio Inc.).
The hyaluronic acid production amount in each test section was shown as a relative value when the hyaluronic acid production amount in each sample and the test section in which aging induction was not performed was taken as 100. Regarding the hyaluronic acid production amount, a significant difference test (t-test, two-tailed) between the two groups of the test section for Sample 1 and the test section for which only the aging induction was performed respectively, and a significant difference test between the test section for Sample 2 and the test section for which only the aging induction was performed were each performed, and "*(p < 0.05)" was marked for those in which a significant difference was recognized.

For experiment [4], the system named is Normal human epidermal keratinocytes. The experiment is described as above. The following applies: 50 µM, 0.5 mM hydrogen peroxide, 24 hours. The protocol: Normal human epidermal keratinocytes were seeded in 24 well plates (1.0 × 10^5 cells/well, N = 3) and precultured for 24 hours (5%CO2, 37°C). As a medium, a commercially available keratinocyte growth medium (PromoCell) was used. Thereafter, the wells were washed once with PBS (-), then replaced with a keratinocyte growth medium dissolved so that the final concentration of Sample 1 was 50 µM, and further incubated for 30 minutes. Thereafter, normal human epidermal keratinocytes were treated with a medium adjusted to have a final concentration of hydrogen peroxide of 0.5 mM to induce aging. Thereafter, the medium was replaced with a new keratinocyte growth medium and incubated for 24 hours, and then the amount of hyaluronic acid was quantified by an ELISA method using a hyaluronic acid quantification kit (Cosmo Bio). For comparison, a test section not treated with oxidized glutathione trisulfide was provided.
The hyaluronic acid production amount in each of the test sections was shown as a relative value when the hyaluronic acid production amount in the test section in which neither oxidized glutathione trisulfide treatment nor aging induction was performed was taken as 100. […]

The test system of the next experiment is B16 mouse melanoma cells. In words: Melanin production suppression test in cultured cells (absorbance at 405 nm). The following applies: α-MSH 200 nM induction; for melanin production amount: 0.02 mM or 0.05 mM, relative to reference sample (induction only) = 100, p < 0.01. As to the method: B16 mouse melanoma cells were seeded in a 6 well plate (2.0 × 10^4 cells/well), and cultured for 24 hours in D-MEM medium to which 5% fetal bovine serum was added with respect to the medium (5%CO2, 37°C). […] The obtained pellets were washed twice with PBS (-), 150 µL of a 1 M sodium hydroxide solution was then added, and the mixture was treated at 100°C for 10 minutes to dissolve the pellets, thereby preparing a reference sample. […] One hundred µL of a sample of each test section was added to a 96 well plate, and the absorbance at 405 nm was measured with a microplate reader (n = 3). […] The significant difference test was performed on the measured value of the reference sample by the Dunnett method (*p < 0.05, **p < 0.01.).

For another experiment, the target named is T1, tyrosinase (Mus musculus, UniProt P11344).
T1 construct: a protein extract containing tyrosinase derived from B16 mouse melanoma cells; endogenous in cells; host or cells: B16 mouse melanoma cells, alpha-MSH induced; RIPA buffer lysate supernatant
T1 sequence (P11344 19-533): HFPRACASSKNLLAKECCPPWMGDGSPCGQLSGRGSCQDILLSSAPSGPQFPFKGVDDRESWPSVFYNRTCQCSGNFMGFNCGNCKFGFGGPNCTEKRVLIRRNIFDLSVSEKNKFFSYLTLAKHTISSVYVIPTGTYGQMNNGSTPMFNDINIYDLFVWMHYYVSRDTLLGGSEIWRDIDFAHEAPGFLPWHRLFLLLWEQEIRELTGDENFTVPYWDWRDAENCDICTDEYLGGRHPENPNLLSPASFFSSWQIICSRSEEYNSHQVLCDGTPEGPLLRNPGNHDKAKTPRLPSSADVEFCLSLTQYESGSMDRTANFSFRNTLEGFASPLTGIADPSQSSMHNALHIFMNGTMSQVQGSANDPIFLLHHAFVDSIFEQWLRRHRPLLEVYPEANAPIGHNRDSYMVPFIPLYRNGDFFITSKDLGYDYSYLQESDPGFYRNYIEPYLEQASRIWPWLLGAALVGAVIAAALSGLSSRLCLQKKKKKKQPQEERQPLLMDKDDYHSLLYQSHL
Nature of the experiment: Tyrosinase activity suppression test (L-DOPA, absorbance at 490 nm, cell extract). The following applies: 0.05 mM or 0.1 mM at melanin induction. The source says:
In addition, the tyrosinase activity in the present invention can be confirmed by adding L-DOPA having a known concentration to a protein extract containing tyrosinase derived from B16 mouse melanoma cells in which melanin is induced by a melanin inducer such as α-MSH (melanocyte stimulating hormone) to react, measuring the absorbance at 490 nm, and correcting the absorbance with the protein concentration in the protein extract. The tyrosinase activity inhibitory effect can be known by comparing the value of the absorbance at 490 nm corrected by the protein concentration measured by adding the test substance at the time of melanin induction and the same operation with the value of the test section to which the test substance is not added.
B16 mouse melanoma cells were seeded in a 6 well plate (2.0 × 10^4 cells/well), and cultured for 24 hours in D-MEM medium to which 5% fetal bovine serum was added with respect to the medium (5%CO2, 37°C). […] The protein concentration of the obtained sample was measured by the BCA method.
The same operation was performed except that melanin induction was not performed, and a reference sample was obtained. […] Fifty µL of a sample of each test section was placed in a 96 well plate (n=3), 50 µL of 0.8 mg/mL L-DOPA was added, the mixture was reacted at 37°C for 1 hour, and then the absorbance at 490 nm was measured with a microplate reader. […]

As to `N[C@@H](CCC(=O)N[C@@H](CSSSC[C@H](NC(=O)CC[C@H](N)C(=O)O)C(=O)NCC(=O)O)C(=O)NCC(=O)O)C(=O)O` [Sample 1, oxidized glutathione trisulfide], the “survival rate of fibroblasts (cell proliferation rate)” value with Normal human fibroblasts [1] is “significant cell proliferation rate”. In addition, the “survival rate of normal human epidermal keratinocytes (cell proliferation rate)” value in experiment [2] is “significant cell proliferation rate”. Further, the “hyaluronic acid production capability” value is recorded as “same hyaluronic acid production capability as those of the test sections that did not induce aging” in the experiment on Normal human fibroblasts [3] (compared with test sections without aging induction, no significant difference) and “same hyaluronic acid production capability as that of the control group in which aging is not induced” in experiment [4] (compared with control group without aging induction, no significant difference). In addition, the “hyaluronic acid production amount” value in the experiment on Normal human fibroblasts [3] is “significantly higher than that in the test section of only aging induction”; in experiment [4] (relative value, compared with only aging induction) it was “significantly higher than that in the test section of only aging induction”. In addition, the melanin production amount result in the experiment on B16 mouse melanoma cells is reported as “significantly low”. Further, the figures for the tyrosinase activity result on tyrosinase (compared with reference sample (no melanin induction) = 100) and on tyrosinase (compared with test section with only melanin induction) were “same degree of tyrosinase activity as the reference sample” and “significantly lower than the test section in which only melanin induction was performed”, respectively.

In the case of `CC(=O)N[C@@H](CSSSC[C@H](NC(C)=O)C(=O)O)C(=O)O` [Sample 2, oxidized NAC trisulfide], the “survival rate of fibroblasts (cell proliferation rate)” value in the experiment on Normal human fibroblasts [1] is “significant cell proliferation rate”. Also, the “hyaluronic acid production amount” value with Normal human fibroblasts [3] is recorded as “significantly higher than that in the test section of only aging induction”. The melanin production amount entry in the experiment on B16 mouse melanoma cells is recorded as “significantly low”.

Turning to `N[C@@H](CCC(=O)N[C@@H](CS)C(=O)NCC(=O)O)C(=O)O` [reduced glutathione, reference compound], the “melanin production suppressing effect” value with B16 mouse melanoma cells (3 mM, compared with 0.02 mM Sample 1) is listed as “same melanin production suppressing effect as the 0.02 mM test section of Sample 1”.
